Results: paper PMC5290327, “SC83288 is a clinical development candidate for the treatment of severe malaria” (Nature Communications, 2017)
In brackets after ≈: the same amount, converted by molar mass. Several values for one entry are separate records, joined by “and”; a condition that tells them apart may be missing. Equal entries are not always repeated. Entries after “also recorded” stand apart in the source; their conditions may differ.

What was measured:
[1] = system: drug-resistant P. falciparum lab strains other than Dd2; experiment: Growth inhibition assay; type: cell-based; conditions: Plasmodium falciparum
CYP2C9 = CYP2C9 (Homo sapiens, UniProt P11712); experiment: CYP inhibition, human liver microsomes; conditions: CYP2C9, tolbutamide to OH-tolbutamide, 10 µM
P. falciparum strain D10 = experiment: Growth inhibition assay; type: cell-based; conditions: Plasmodium falciparum
CYP2C8 = CYP2C8 (Homo sapiens, UniProt P10632); experiment: CYP inhibition, human liver microsomes; conditions: CYP2C8, amodiaquine to Desethylamodiaquine, 10 µM
k (KOP) = biological target: T1, k (KOP) (Rattus norvegicus, UniProt P34975); experiment: Radioligand binding
T1 construct: Cerep
T1 sequence (P34975 whole entry): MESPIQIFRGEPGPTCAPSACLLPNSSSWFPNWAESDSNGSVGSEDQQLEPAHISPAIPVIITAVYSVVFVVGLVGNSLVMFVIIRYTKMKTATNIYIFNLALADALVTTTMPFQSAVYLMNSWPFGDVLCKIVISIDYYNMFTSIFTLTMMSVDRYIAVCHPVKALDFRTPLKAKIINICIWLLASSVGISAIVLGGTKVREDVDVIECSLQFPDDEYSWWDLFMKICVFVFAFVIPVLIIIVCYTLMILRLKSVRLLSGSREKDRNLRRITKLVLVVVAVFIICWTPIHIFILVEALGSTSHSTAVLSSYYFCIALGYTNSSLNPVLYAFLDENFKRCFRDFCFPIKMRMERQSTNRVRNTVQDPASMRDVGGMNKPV

CCK1 (CCKA) (h) = biological target: T2, CCK1 (CCKA) (h) (Homo sapiens, UniProt P32238); experiment: Radioligand binding
T2 construct: Cerep (contract study)

Plasmodium vinckei = experiment: Rodent malaria model; type: in vivo
Text: The two SC compounds were also active in the Plasmodium vinckei rodent malaria model system.

Permeability assay = type: in vitro ADME; conditions: human; CACO 2 cells, 10 μM, apical side, 2 h
Experimental: The study was conducted by Cyprotex (Macclesfield, United Kingdom). CACO 2 cells (Sigma-Aldrich, catalogue: 86010202) were seeded on Millipore Millicell plates and formed a confluent monolayer over 20 days before the experiment. On day 20, the tested compounds at a final concentration of 10 μM were added to the apical side of the membrane. The transport of the compound across the monolayer was monitored over a 2 h period by liquid chromatography (LC)–MS/MS quantification. The permeability coefficient (Papp) was calculated from the following equation: [drawing 1] , where dQ/dt is the rate of permeation of the drug across the cells, C0 the donor compartment concentration at time zero and A the area of the cell monolayer. C0 was obtained from analysis of the dosing solution at the start of the experiment.

CYP1A2 = CYP1A2 (Homo sapiens, UniProt P05177); experiment: CYP inhibition, human liver microsomes; conditions: CYP1A2, melatonin to 6-OH-melatonin, 10 µM
Chain of CYP1A2 (P05177 whole entry): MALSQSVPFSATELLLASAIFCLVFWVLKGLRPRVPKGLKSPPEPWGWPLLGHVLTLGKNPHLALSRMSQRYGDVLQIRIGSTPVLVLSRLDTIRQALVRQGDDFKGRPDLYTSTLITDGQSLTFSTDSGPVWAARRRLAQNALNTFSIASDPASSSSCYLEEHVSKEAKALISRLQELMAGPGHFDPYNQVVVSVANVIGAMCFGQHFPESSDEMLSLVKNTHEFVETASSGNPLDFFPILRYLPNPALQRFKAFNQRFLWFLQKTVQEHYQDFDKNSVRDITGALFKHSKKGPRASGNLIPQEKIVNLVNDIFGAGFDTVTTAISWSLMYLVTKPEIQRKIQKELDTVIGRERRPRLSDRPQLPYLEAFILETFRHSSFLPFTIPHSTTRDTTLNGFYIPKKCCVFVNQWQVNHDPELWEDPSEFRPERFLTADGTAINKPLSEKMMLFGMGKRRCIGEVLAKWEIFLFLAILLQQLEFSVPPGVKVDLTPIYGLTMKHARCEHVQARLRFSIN

MT1 (ML1A) (h) = biological target: T3, MT1 (ML1A) (h) (Homo sapiens, UniProt P48039); experiment: Radioligand binding
T3 construct: Cerep
T3 sequence (P48039 whole entry): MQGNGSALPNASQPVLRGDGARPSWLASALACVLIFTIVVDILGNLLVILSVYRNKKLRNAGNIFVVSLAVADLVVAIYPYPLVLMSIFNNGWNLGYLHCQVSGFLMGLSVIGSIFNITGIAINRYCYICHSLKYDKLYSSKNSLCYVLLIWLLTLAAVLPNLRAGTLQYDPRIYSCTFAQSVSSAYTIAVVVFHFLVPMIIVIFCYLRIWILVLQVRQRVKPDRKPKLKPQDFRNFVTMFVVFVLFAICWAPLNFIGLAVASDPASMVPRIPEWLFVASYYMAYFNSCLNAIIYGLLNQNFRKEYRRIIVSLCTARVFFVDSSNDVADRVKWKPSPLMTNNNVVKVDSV

A1 (h) = biological target: T4, A1 (h) (Homo sapiens, UniProt P30542); experiment: Radioligand binding
T4 construct: Cerep (contract study)
T4 sequence (P30542 whole entry): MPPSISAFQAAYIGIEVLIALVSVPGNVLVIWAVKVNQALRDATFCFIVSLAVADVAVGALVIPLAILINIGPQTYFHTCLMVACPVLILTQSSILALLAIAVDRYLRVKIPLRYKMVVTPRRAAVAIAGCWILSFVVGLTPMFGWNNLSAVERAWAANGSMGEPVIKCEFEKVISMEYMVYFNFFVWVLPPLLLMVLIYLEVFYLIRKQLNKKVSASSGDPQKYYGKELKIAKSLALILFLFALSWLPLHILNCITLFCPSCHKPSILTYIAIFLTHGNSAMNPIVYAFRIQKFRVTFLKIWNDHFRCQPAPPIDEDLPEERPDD

M2 (h) = biological target: T5, M2 (h) (Homo sapiens, UniProt P08172); experiment: Radioligand binding
T5 construct: Cerep
T5 sequence (P08172 whole entry): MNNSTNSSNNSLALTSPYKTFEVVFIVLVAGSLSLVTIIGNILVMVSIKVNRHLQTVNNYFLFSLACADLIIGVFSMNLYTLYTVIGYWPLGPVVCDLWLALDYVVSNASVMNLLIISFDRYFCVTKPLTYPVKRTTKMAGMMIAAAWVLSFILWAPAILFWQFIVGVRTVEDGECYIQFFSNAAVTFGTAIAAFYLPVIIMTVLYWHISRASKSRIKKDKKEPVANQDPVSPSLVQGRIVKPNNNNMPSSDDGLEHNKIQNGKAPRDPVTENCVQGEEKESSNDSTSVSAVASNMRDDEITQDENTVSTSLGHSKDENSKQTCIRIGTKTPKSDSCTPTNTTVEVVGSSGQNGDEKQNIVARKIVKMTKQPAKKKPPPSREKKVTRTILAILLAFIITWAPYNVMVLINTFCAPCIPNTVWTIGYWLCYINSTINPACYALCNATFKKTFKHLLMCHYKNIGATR

[2] = system: late stage (IV and V) gametocytes, NF54^Pfs16; experiment: Gametocytocidal activity, luciferase assay; type: cell-based; conditions: Plasmodium falciparum, 72 h
Experimental: (§1) Activity against early- and late-stage gametocytes was determined in miniaturized 384-wells plate assays as previously described. Briefly, gametocytes from a recombinant line NF54^Pfs16, expressing a green fluorescent protein–luciferase reporter gene under the gametocyte-specific Pfs16 promoter were induced and purified as previously described; gametocytes were then treated either on day 1 (stage I gametocytes) or day 8 of gametocytogenesis (stage IV gametocytes) with serially diluted SC81458 or SC83288 to achieve a final top concentration of 40 μM (0.4% dimethylsulphoxide(DMSO)). After 72 h of incubation, gametocyte inhibition was assessed by luminometry, after addition of Steadylite plus luciferase detection kit (PerkinElmer) to the plate wells[58][59].

[3] = system: early stage (I–III) gametocytes, NF54^Pfs16; experiment: Gametocytocidal activity, luciferase assay; type: cell-based; conditions: Plasmodium falciparum, 72 h
Experimental: as §1

b2 (h) [4] = biological target: T6, b2 (h) (Homo sapiens, UniProt P30411); type: binding
T6 construct: Cerep (contract study)

HepG2 cells = experiment: Cytotoxicity; conditions: 50 μM
[5] = Solubility in phosphate buffer; type: physicochemical
Experimental: SC81458 and SC83288 were soluble in water (890 and 940 μg ml^−1, respectively) and organic solvents. […] The compounds were stable in different physiological solutions, including artificial gastric juice, simulated intestinal fluid, phosphate-buffered saline and human plasma, when incubated for 6 h at 37 °C.

V1a (h) = biological target: T7, V1a (h) (Homo sapiens, UniProt P37288); experiment: Radioligand binding
T7 construct: Cerep (contract screening)

5-HT6 (h) = biological target: T8, 5-HT6 (h) (Homo sapiens, UniProt P50406); experiment: Radioligand binding
T8 construct: Cerep (contract screening)
T8 sequence (P50406 whole entry): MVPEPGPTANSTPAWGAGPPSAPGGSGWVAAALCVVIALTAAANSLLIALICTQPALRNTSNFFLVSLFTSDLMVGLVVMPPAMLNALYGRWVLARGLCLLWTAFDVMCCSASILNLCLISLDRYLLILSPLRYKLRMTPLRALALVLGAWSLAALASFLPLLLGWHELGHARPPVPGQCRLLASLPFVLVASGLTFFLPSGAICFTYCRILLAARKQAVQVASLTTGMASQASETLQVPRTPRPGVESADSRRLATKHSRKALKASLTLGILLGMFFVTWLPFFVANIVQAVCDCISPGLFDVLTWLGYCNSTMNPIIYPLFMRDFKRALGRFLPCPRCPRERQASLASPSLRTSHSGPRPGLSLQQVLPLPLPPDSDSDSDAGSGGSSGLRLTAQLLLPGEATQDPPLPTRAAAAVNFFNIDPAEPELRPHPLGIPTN

CYP3A4 = CYP3A4 (Homo sapiens, UniProt P08684); experiment: CYP inhibition, human liver microsomes; conditions: 10 µM
Chain of CYP3A4 (P08684 whole entry): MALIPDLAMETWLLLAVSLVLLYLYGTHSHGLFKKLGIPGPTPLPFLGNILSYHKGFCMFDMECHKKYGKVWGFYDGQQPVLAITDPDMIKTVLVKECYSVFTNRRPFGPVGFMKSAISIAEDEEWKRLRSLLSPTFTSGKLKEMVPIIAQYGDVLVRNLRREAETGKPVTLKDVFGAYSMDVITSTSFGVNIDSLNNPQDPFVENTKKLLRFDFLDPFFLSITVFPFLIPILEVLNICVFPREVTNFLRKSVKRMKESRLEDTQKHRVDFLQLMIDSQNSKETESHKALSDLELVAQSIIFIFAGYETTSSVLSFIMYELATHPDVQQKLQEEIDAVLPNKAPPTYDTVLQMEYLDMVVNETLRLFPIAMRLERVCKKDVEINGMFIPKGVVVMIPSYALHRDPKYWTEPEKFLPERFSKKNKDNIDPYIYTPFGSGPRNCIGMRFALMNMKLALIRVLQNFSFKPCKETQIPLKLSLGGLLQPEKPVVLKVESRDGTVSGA

NOP (ORL1) (h) = biological target: T9, NOP (ORL1) (h) (Homo sapiens, UniProt P41146); experiment: Radioligand binding
T9 construct: Cerep
T9 sequence (P41146 whole entry): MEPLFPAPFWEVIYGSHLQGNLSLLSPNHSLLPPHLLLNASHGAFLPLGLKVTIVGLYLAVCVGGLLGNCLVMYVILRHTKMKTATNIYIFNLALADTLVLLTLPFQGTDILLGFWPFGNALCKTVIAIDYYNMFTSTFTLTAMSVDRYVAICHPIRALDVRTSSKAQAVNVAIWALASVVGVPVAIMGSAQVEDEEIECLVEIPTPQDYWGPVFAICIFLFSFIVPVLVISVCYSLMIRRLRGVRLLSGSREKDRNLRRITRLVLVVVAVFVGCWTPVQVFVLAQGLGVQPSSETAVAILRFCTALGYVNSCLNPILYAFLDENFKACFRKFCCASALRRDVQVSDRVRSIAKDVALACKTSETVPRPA

b2 (h) [6] = biological target: T10, b2 (h) (Homo sapiens, UniProt P07550); type: binding
T10 construct: Cerep (contract study)

5-HT2A (h) = biological target: T11, 5-HT2A (h) (Homo sapiens, UniProt P28223); experiment: Radioligand binding
T11 construct: Cerep (contract screening)
T11 sequence (P28223 whole entry): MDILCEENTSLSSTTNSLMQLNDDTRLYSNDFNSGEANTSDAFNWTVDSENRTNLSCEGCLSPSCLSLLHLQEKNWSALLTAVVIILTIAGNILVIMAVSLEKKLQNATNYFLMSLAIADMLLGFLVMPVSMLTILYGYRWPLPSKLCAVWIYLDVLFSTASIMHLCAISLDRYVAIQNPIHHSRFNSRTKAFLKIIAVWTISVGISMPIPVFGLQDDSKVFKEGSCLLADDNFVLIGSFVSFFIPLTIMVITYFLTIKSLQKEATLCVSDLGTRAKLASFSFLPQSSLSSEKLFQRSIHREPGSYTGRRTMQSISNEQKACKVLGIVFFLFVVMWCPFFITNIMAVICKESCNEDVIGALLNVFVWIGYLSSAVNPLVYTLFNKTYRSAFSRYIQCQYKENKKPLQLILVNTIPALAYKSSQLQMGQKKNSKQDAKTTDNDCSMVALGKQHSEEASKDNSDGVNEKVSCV

[7] = system: P. falciparum strain Thai19; experiment: Growth inhibition assay; type: cell-based; conditions: Plasmodium falciparum
[8] = In vitro metabolism in liver microsomes; conditions: monkey liver microsomes, 10 μM
5-HT1A (h) = biological target: T12, 5-HT1A (h) (Homo sapiens, UniProt P08908); experiment: Radioligand binding
T12 construct: Cerep
T12 sequence (P08908 whole entry): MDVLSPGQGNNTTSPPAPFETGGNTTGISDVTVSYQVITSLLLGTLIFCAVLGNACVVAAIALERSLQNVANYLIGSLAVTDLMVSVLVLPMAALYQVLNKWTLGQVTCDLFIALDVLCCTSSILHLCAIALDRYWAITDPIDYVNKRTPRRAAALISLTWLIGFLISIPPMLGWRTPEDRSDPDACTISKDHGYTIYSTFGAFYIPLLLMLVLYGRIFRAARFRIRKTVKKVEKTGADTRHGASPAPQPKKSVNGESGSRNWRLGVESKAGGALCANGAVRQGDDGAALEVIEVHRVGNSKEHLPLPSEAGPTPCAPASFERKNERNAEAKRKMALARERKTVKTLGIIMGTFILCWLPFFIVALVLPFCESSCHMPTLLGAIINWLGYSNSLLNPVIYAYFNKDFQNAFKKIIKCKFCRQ

M3 (h) = biological target: T13, M3 (h) (Homo sapiens, UniProt P20309); experiment: Radioligand binding
T13 construct: Cerep

D2S (h) = biological target: T14, D2S (h) (Homo sapiens, UniProt P14416); experiment: Radioligand binding
T14 construct: Cerep

MC4 (h) = biological target: T15, MC4 (h) (Homo sapiens, UniProt P32245); experiment: Radioligand binding
T15 construct: Cerep
T15 sequence (P32245 whole entry): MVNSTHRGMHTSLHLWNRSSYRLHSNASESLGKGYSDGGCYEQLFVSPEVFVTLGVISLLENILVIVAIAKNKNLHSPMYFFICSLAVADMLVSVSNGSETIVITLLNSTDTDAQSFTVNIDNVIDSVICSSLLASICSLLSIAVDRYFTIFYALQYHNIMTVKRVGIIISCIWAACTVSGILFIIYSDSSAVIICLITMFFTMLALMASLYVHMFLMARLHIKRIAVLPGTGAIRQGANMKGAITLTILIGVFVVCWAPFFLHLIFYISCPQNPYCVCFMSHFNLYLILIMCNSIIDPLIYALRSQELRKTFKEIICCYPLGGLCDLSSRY

[9] = CYP3A4a, midazolam to 1'-OH-midazolam
[10] = CYP3A4b, testosterone to 6β-OH-testosterone
[11] = CYP3A4c, omeprazole to omeprazole sulphone
[12] = CYP3A4d, omeprazole to 3-OH-omeprazole
[13] = P. vinckei, 30 mg kg-1 i.p. 1x4 days

Compound	IC50 [1] [nM]	Remaining enzyme activity (CYP2C9) [%]	IC50 (P. falciparum strain D10) [nM]	Remaining enzyme activity (CYP2C8) [%]	Inhibition of control specific binding (k (KOP)) [%]	Inhibition of control specific binding (CCK1 (CCKA) (h)) [%]	Papp at 2 h, 10 μM (Permeability assay) [×10⁻⁶ cm/s]	Remaining enzyme activity (CYP1A2) [%]	Inhibition of control specific binding (MT1 (ML1A) (h)) [%]	Inhibition of control specific binding (A1 (h)) [%]	Inhibition of control specific binding (M2 (h)) [%]	IC50 [2] [nM]	IC50 [3] [nM]	Inhibition of control specific binding (b2 (h) [4]) [%]	in vitro propagation / cytotoxicity (HepG2 cells)	solubility ([5]; pH 4, aqueous buffer) [µM]	solubility ([5]; pH 9, aqueous buffer) [µM]	Inhibition of control specific binding (V1a (h)) [%]	Inhibition of control specific binding (5-HT6 (h)) [%]	Remaining enzyme activity (CYP3A4; [9]) [%]	other results
COC(=O)N1CCN(C(=N)c2cccc(NC(=O)Nc3ccc(S(=O)(=O)NCc4ccc(S(N)(=O)=O)cc4)cc3)c2)CC1 [SC83288, methyl 4-(imino(3-(3-(4-(N-(4-sulfamoylbenzyl)sulfamoyl)phenyl)ureido)phenyl)methyl) piperazine-1-carboxylate]	< 20	103	5 ± 1	89	36	-5	0.42	97	-16	8	68	> 30000	199 ± 30	-4	did not affect	2600 (≈ 1640 µg/mL)	800 (≈ 504 µg/mL)	11	11	92	Outcome (Plasmodium vinckei; P. vinckei, 20 mg kg-1 i.p. 1x4 days): complete clearance, no recrudescence; also recorded: fully cured the infection; Remaining enzyme activity (CYP3A4; [10]): 88%; Remaining enzyme activity (CYP3A4; [11]): 87%; Remaining enzyme activity (CYP3A4; [12]): 92%; Inhibition of control specific binding (NOP (ORL1) (h)): 10%; Inhibition of control specific binding (b2 (h) [6]): 27%; Inhibition of control specific binding (5-HT2A (h)): 30%; IC50 [7]: 4 ± 1 nM; remaining after 60 min of incubation [8]: 51%; Inhibition of control specific binding (5-HT1A (h)): 15%; Inhibition of control specific binding (M3 (h)): 55%; Inhibition of control specific binding (D2S (h)): 1%; Inhibition of control specific binding (MC4 (h)): 4%
CCCCN1CCN(C(=N)c2cccc(NC(=O)Nc3ccc(S(=O)(=O)NCc4ccc(S(N)(=O)=O)cc4)cc3)c2)CC1 [SC81458, 4-(3-(3-((4-butylpiperazin-1-yl)(imino)methyl)phenyl)ureido)-N-(4-sulfamoylbenzyl) benzenesulfonamide]	< 20	104	9 ± 4	95	43	0	0.76	95	-5	7	45	1800 ± 200	76 ± 6	7	did not affect	1800 (≈ 1130 µg/mL)	400 (≈ 251 µg/mL)	-1	-2	74	parasitemia in treated mice at day 5 (Plasmodium vinckei; 30 mg kg^−1 per day for 4 days): 3.3%; Outcome (Plasmodium vinckei; [13]): rescrudescence; also recorded: all treated mice died of a recrudescent parasitemia; Outcome: decrease of parasitemia (Plasmodium vinckei; [13]): > 90% and 97%; Remaining enzyme activity (CYP3A4; [10]): 77%; Remaining enzyme activity (CYP3A4; [11]): 66%; Remaining enzyme activity (CYP3A4; [12]): 98%; Inhibition of control specific binding (NOP (ORL1) (h)): 2%; Inhibition of control specific binding (b2 (h) [6]): 6%; Inhibition of control specific binding (5-HT2A (h)): 17%; IC50 [7]: 7 ± 1 nM; remaining after 60 min of incubation [8]: almost completely metabolized; Inhibition of control specific binding (5-HT1A (h)): 2%; Inhibition of control specific binding (M3 (h)): 48%; Inhibition of control specific binding (D2S (h)): 15%; Inhibition of control specific binding (MC4 (h)): -10%
